Data taken from PubChem BioAssay AID1963865 (Molecular Pharmacology Branch, DTP, NCI, 2024).

System: KRAS PDC multicell spheroid viability
Test: Anticancer human tumor 825966-067-R-J1-PDC patient-derived colon carcinoma cell line growth inhibition [KRAS2]
Conditions: for viability, T/C: stronger effect = lower value
Summary of the method: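 KRAS-mutant tumor cells were grown as spheroids with HUVEC endothelial cells and human MSCs as stroma. Targeted agents were tested alone and with KRAS pathway inhibitors. Doses started at or near clinical Cmax, or 10 microM, descending half-log.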

[1] = curve of first compound, second compound 0.1 µM
[2] = curve of first compound, second compound 0.316 µM
[3] = curve of first compound, second compound 1 µM
[4] = curve of first compound, second compound 3.16 µM
[5] = curve of first compound, second compound 10 µM
[6] = second compound 0.1 µM, first compound 0.0316 µM
[7] = second compound 0.1 µM, first compound 0.1 µM
[8] = second compound 0.1 µM, first compound 0.316 µM
[9] = second compound 0.1 µM, first compound 1 µM
[10] = second compound 0.1 µM, first compound 3.16 µM
[11] = second compound 0.1 µM, first compound 10 µM
[12] = second compound 0.316 µM, first compound 0.0316 µM
[13] = second compound 0.316 µM, first compound 0.1 µM
[14] = second compound 0.316 µM, first compound 0.316 µM
[15] = second compound 0.316 µM, first compound 1 µM
[16] = second compound 0.316 µM, first compound 3.16 µM
[17] = second compound 0.316 µM, first compound 10 µM
[18] = second compound 1 µM, first compound 0.0316 µM
[19] = second compound 1 µM, first compound 0.1 µM
[20] = second compound 1 µM, first compound 0.316 µM
[21] = second compound 1 µM, first compound 1 µM
[22] = second compound 1 µM, first compound 3.16 µM
[23] = second compound 1 µM, first compound 10 µM
[24] = second compound 3.16 µM, first compound 0.0316 µM
[25] = second compound 3.16 µM, first compound 0.1 µM
[26] = second compound 3.16 µM, first compound 0.316 µM
[27] = second compound 3.16 µM, first compound 1 µM
[28] = second compound 3.16 µM, first compound 3.16 µM
[29] = second compound 3.16 µM, first compound 10 µM
[30] = second compound 10 µM, first compound 0.0316 µM
[31] = second compound 10 µM, first compound 0.1 µM
[32] = second compound 10 µM, first compound 0.316 µM
[33] = second compound 10 µM, first compound 1 µM
[34] = second compound 10 µM, first compound 3.16 µM
[35] = second compound 10 µM, first compound 10 µM
[36] = second compound 0.1 µM, first compound 0.000316 µM
[37] = second compound 0.1 µM, first compound 0.001 µM
[38] = second compound 0.1 µM, first compound 0.00316 µM
[39] = second compound 0.1 µM, first compound 0.01 µM
[40] = second compound 0.316 µM, first compound 0.000316 µM
[41] = second compound 0.316 µM, first compound 0.001 µM
[42] = second compound 0.316 µM, first compound 0.00316 µM
[43] = second compound 0.316 µM, first compound 0.01 µM
[44] = second compound 1 µM, first compound 0.000316 µM
[45] = second compound 1 µM, first compound 0.001 µM
[46] = second compound 1 µM, first compound 0.00316 µM
[47] = second compound 1 µM, first compound 0.01 µM
[48] = second compound 3.16 µM, first compound 0.000316 µM
[49] = second compound 3.16 µM, first compound 0.001 µM
[50] = second compound 3.16 µM, first compound 0.00316 µM
[51] = second compound 3.16 µM, first compound 0.01 µM
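Note: spheroids exposed to compounds for 7 days.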
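Throughout, for viability, T/C: 100% = DMSO vehicle control viability.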

CC1(C)CCC(CN2CCN(c3ccc(C(=O)NS(=O)(=O)c4ccc(NCC5CCOCC5)c([N+](=O)[O-])c4)c(Oc4cnc5[nH]ccc5c4)c3)CC2)=C(c2ccc(Cl)cc2)C1 + COc1cc2nc(C)nc(NC(C)c3cc(N)cc(C(F)(F)F)c3)c2cc1OC1CCOC1
IC50 [1]: 2080 nM
IC50 [2]: 1940 nM
IC50 [3]: 1990 nM
IC50 [4]: 2210 nM
IC50 [5]: 31.6 nM
viability, T/C [6]: 94.7%
viability, T/C [7]: 86.3%
viability, T/C [8]: 107%
viability, T/C [9]: 111%
viability, T/C [10]: 21.4%
viability, T/C [11]: 5.44%
viability, T/C [12]: 99.2%
viability, T/C [13]: 94.8%
viability, T/C [14]: 90.6%
viability, T/C [15]: 91.5%
viability, T/C [16]: 19.7%
viability, T/C [17]: 6.45%
viability, T/C [18]: 118%
viability, T/C [19]: 96%
viability, T/C [20]: 114%
viability, T/C [21]: 106%
viability, T/C [22]: 12.3%
viability, T/C [23]: 3.36%
viability, T/C [24]: 139%
viability, T/C [25]: 119%
viability, T/C [26]: 130%
viability, T/C [27]: 180%
viability, T/C [28]: 8.21%
viability, T/C [29]: 3.86%
viability, T/C [30]: 14.3%
viability, T/C [31]: 48.2%
viability, T/C [32]: 68.2%
viability, T/C [33]: 59.6%
viability, T/C [34]: 1.84%
viability, T/C [35]: 0.72%

CC(C)n1nc(-c2ccc3oc(N)nc3c2)c2c(N)ncnc21 + COc1cc2nc(C)nc(NC(C)c3cc(N)cc(C(F)(F)F)c3)c2cc1OC1CCOC1
IC50 [1]: > 100 nM
IC50 [2]: > 100 nM
IC50 [3]: > 100 nM
IC50 [4]: > 100 nM
IC50 [5]: < 0.316 nM
viability, T/C [36]: 59.7%
viability, T/C [37]: 93.1%
viability, T/C [38]: 125%
viability, T/C [39]: 154%
viability, T/C [6]: 79%
viability, T/C [7]: 99.4%
viability, T/C [40]: 97.1%
viability, T/C [41]: 99%
viability, T/C [42]: 116%
viability, T/C [43]: 137%
viability, T/C [12]: 84%
viability, T/C [13]: 81.7%
viability, T/C [44]: 100%
viability, T/C [45]: 103%
viability, T/C [46]: 123%
viability, T/C [47]: 131%
viability, T/C [18]: 82.8%
viability, T/C [19]: 75.2%
viability, T/C [48]: 115%
viability, T/C [49]: 109%
viability, T/C [50]: 121%
viability, T/C [51]: 63.7%
viability, T/C [24]: 82.2%
viability, T/C [25]: 81.5%
viability, T/C (second compound 10 µM, first compound 0.000316 µM): 6.15%
viability, T/C (second compound 10 µM, first compound 0.001 µM): 2.53%
viability, T/C (second compound 10 µM, first compound 0.00316 µM): 15.6%
viability, T/C (second compound 10 µM, first compound 0.01 µM): 12.3%
viability, T/C [30]: 11.2%
viability, T/C [31]: 3.11%

COc1cc2nccc(Oc3ccc(NC(=O)C4(C(=O)Nc5ccc(F)cc5)CC4)cc3)c2cc1OC
viability, T/C (compound 0.0316 µM): 102% [middle of 5 runs]
viability, T/C (compound 0.316 µM): 86.7% [middle of 5 runs]
viability, T/C (compound 1 µM): 83.7% [middle of 5 runs]
viability, T/C (compound 3.16 µM): 8.3% [middle of 5 runs]
viability, T/C (compound 10 µM): 7.11% [middle of 5 runs]
IC50 (curve of compound): 1.75 µM [middle of 5 runs]

COc1cc(Nc2ncc3c(n2)-c2ccc(Cl)cc2C(c2c(F)cccc2OC)=NC3)ccc1C(=O)O + CNCc1ccccc1-c1csc(C(C)Nc2nc(C)nc3cc(OC)c(OC)cc23)c1
IC50 [1]: > 10000 nM
IC50 [2]: > 10000 nM
IC50 [3]: > 10000 nM
IC50 [4]: < 31.6 nM
IC50 [5]: < 31.6 nM
viability, T/C [6]: 95.3%
viability, T/C [7]: 178%
viability, T/C [8]: 165%
viability, T/C [9]: 150%
viability, T/C [10]: 167%
viability, T/C [11]: 155%
viability, T/C [12]: 132%
viability, T/C [13]: 145%
viability, T/C [14]: 124%
viability, T/C [15]: 140%
viability, T/C [16]: 147%
viability, T/C [17]: 134%
viability, T/C [18]: 108%
viability, T/C [19]: 123%
viability, T/C [20]: 159%
viability, T/C [21]: 156%
viability, T/C [22]: 142%
viability, T/C [23]: 120%
viability, T/C [24]: 0.27%
viability, T/C [25]: 2.41%
viability, T/C [26]: 15.8%
viability, T/C [27]: 0.43%
viability, T/C [28]: 0.37%
viability, T/C [29]: 4.13%
viability, T/C [30]: 0.16%
viability, T/C [31]: 0.15%
viability, T/C [32]: 0.17%
viability, T/C [33]: 0.16%
viability, T/C [34]: 0.17%
viability, T/C [35]: 0.22%

COc1cc(Nc2ncc3c(n2)-c2ccc(Cl)cc2C(c2c(F)cccc2OC)=NC3)ccc1C(=O)O + CC1OCC2(CCN(c3cnc(Sc4ccnc(N)c4Cl)c(N)n3)CC2)C1N
IC50 [1]: > 10000 nM
IC50 [2]: > 10000 nM
IC50 [3]: > 10000 nM
IC50 [4]: > 10000 nM
IC50 [5]: < 31.6 nM
viability, T/C [6]: 132%
viability, T/C [7]: 144%
viability, T/C [8]: 125%
viability, T/C [9]: 154%
viability, T/C [10]: 154%
viability, T/C [11]: 135%
viability, T/C [12]: 127%
viability, T/C [13]: 111%
viability, T/C [14]: 147%
viability, T/C [15]: 143%
viability, T/C [16]: 154%
viability, T/C [17]: 133%
viability, T/C [18]: 129%
viability, T/C [19]: 145%
viability, T/C [20]: 141%
viability, T/C [21]: 122%
viability, T/C [22]: 119%
viability, T/C [23]: 103%
viability, T/C [24]: 64.6%
viability, T/C [25]: 127%
viability, T/C [26]: 107%
viability, T/C [27]: 74.1%
viability, T/C [28]: 101%
viability, T/C [29]: 123%
viability, T/C [30]: 14.9%
viability, T/C [31]: 10.9%
viability, T/C [32]: 22%
viability, T/C [33]: 20.2%
viability, T/C [34]: 18.5%
viability, T/C [35]: 39.6%

CNCc1ccccc1-c1csc(C(C)Nc2nc(C)nc3cc(OC)c(OC)cc23)c1 (stereo not drawn)
viability, T/C (compound 10 µM): 0.22% [middle of 14 runs]
IC50 (compound alone, run of 08/19/2021): 2.3 µM [middle of 6 runs]
IC50 (compound alone, run of 08/26/2021): 3.18 µM [middle of 5 runs]

COc1cc(Nc2ncc3c(n2)-c2ccc(Cl)cc2C(c2c(F)cccc2OC)=NC3)ccc1C(=O)O
viability, T/C (compound 0.1 µM): 103% [middle of 5 runs]
viability, T/C (compound 1 µM): 114% [middle of 5 runs]
viability, T/C (compound 3.16 µM): 119% [middle of 5 runs]
viability, T/C (compound 10 µM): 132% [middle of 5 runs]
IC50 (curve of compound): > 10000 nM

CC(C)n1nc(-c2ccc3oc(N)nc3c2)c2c(N)ncnc21 + C=CC(=O)N1CCN(c2nc(OCC3CCCN3C)nc3c2CCN(c2cccc4cccc(C)c24)C3)CC1CC#N
IC50 (curve of first compound, second compound 0.0316 µM): > 100 nM
IC50 [1]: > 100 nM
IC50 [2]: > 100 nM
IC50 [3]: > 100 nM
IC50 [4]: 9.07 nM
viability, T/C (second compound 0.0316 µM, first compound 0.000316 µM): 111%
viability, T/C (second compound 0.0316 µM, first compound 0.001 µM): 86.4%
viability, T/C (second compound 0.0316 µM, first compound 0.00316 µM): 116%
viability, T/C (second compound 0.0316 µM, first compound 0.01 µM): 153%
viability, T/C (second compound 0.0316 µM, first compound 0.0316 µM): 113%
viability, T/C (second compound 0.0316 µM, first compound 0.1 µM): 141%
viability, T/C [36]: 81.6%
viability, T/C [37]: 106%
viability, T/C [38]: 119%
viability, T/C [39]: 162%
viability, T/C [6]: 113%
viability, T/C [7]: 108%
viability, T/C [40]: 92%
viability, T/C [41]: 97.3%
viability, T/C [42]: 129%
viability, T/C [43]: 154%
viability, T/C [12]: 115%
viability, T/C [13]: 94.7%
viability, T/C [44]: 89.3%
viability, T/C [45]: 108%
viability, T/C [46]: 105%
viability, T/C [47]: 154%
viability, T/C [18]: 98.7%
viability, T/C [19]: 85.2%
viability, T/C [48]: 106%
viability, T/C [49]: 84.9%
viability, T/C [50]: 116%
viability, T/C [51]: 39.9%
viability, T/C [24]: 64.4%
viability, T/C [25]: 31.2%

COc1cc(OC)cc(N(CCNC(C)C)c2ccc3ncc(-c4cnn(C)c4)nc3c2)c1
viability, T/C (compound 0.0316 µM): 92.5% [middle of 5 runs]
viability, T/C (compound 0.1 µM): 89.2% [middle of 5 runs]
viability, T/C (compound 0.316 µM): 91.1% [middle of 5 runs]
viability, T/C (compound 1 µM): 95.6% [middle of 5 runs]
